These results are taken from patent US10202361B2, “Pyridazinones as herbicides” (E I DU PONT DE NEMOURS AND COMPANY, priority 2014, dated 2019).

Holding throughout (assay type): in vivo
Assay [1] concerns foxtail, green (green foxtail, Setaria viridis). Put plainly: Test C pre-/postemergence greenhouse herbicide test. Summed up: (§1)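 Visual ratings, 0 = no effect, 100 = complete control, vs untreated controls at 13–15 d. Pre: seeds in loam/sand. Post: 2–18 cm plants (1–4 leaf), peat/vermiculite mix. Surfactant-containing solvent formulation; greenhouse.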
Assay [2] deals with Russian thistle (Salsola kali). The description is as above. To be noted: Preemergence. Summed up: as §1
In assay [3] the test system is goosegrass (Eleusine indica). The assay is described as above. The procedure, abridged:
as §1

The subject of assay [4] is sunflower (common oilseed sunflower, Helianthus annuus). The description is as above. To be noted: Preemergence. The procedure, abridged:
as §1

Assay [5] concerns cupgrass, woolly (woolly cupgrass, Eriochloa villosa). Described as above. Summed up:
as §1

The subject of assay [6] is bermudagrass (Cynodon dactylon). Described as above. The procedure, abridged:
as §1

Assay [7] deals with cocklebur (common cocklebur, Xanthium strumarium). The description is as above. The procedure, abridged:
as §1

For assay [8], the system named is surinam grass (Brachiaria decumbens). Described as above. The procedure, abridged:
as §1

The subject of assay [9] is smartweed (ladysthumb smartweed, Polygonum persicaria). Put plainly: Test E pre-/postemergence greenhouse herbicide test. To be noted: scale 0 to 100. Summed up: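 Preemergence: seeds sown in silt loam soil and sprayed with test chemicals in a non-phytotoxic solvent mixture containing surfactant. Postemergence: plants at 1- to 4-leaf stage (2 to 18 cm) in peat/vermiculite medium treated with the same formulation. Visual rating after 14 to 21 d in greenhouse, 0 (no effect) to 100 (complete control) versus controls.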

For `Cc1cc(=O)n(-c2ccc(F)cc2)nc1Oc1ccnc(C(F)(F)F)c1` [Compound 14, 2-(4-fluorophenyl)-5-methyl-6-[[2-(trifluoromethyl)-4-pyridinyl]oxy]-3 (2H)-pyridazinone], the Plant response rating in assay [1] (Postemergence, 31 g ai/ha) is listed as 10; in [1] (Postemergence, 62 g ai/ha) it was 10; in assay [1] (Postemergence, 125 g ai/ha) it was 40; in [1] (Postemergence, 250 g ai/ha), 98; in assay [1] (Preemergence, 31 g ai/ha), 95; in assay [1] (Preemergence, 62 g ai/ha), 95. Moreover, the Plant response rating in assay [1] (Preemergence, 125 g ai/ha) was 95; in [1] (Preemergence, 250 g ai/ha), 95; in [2] (31 g ai/ha), 85; in [2] (62 g ai/ha) it was 90; in [2] (125 g ai/ha), 90; in [2] (250 g ai/ha) it was 90. For the same molecule, the Plant response rating was 5 in [3] (Postemergence, 31 g ai/ha); 10 in assay [3] (Postemergence, 62 g ai/ha); 15 in assay [3] (Postemergence, 125 g ai/ha); 15 in assay [3] (Postemergence, 250 g ai/ha); 45 in assay [3] (Preemergence, 31 g ai/ha); 80 in assay [3] (Preemergence, 62 g ai/ha). Further, the Plant response rating in assay [3] (Preemergence, 125 g ai/ha) amounted to 100; in assay [3] (Preemergence, 250 g ai/ha) it was 100; in assay [4] (62 g ai/ha) it was 5; in [4] (125 g ai/ha), 5; in assay [4] (250 g ai/ha) it was 10; in assay [5] (Postemergence, 31 g ai/ha), 5. Also, the Plant response rating in assay [5] (Postemergence, 62 g ai/ha) was found to be 15; in assay [5] (Postemergence, 125 g ai/ha), 15; in assay [5] (Postemergence, 250 g ai/ha), 20; in [5] (Preemergence, 31 g ai/ha), 65; in assay [5] (Preemergence, 62 g ai/ha), 95; in assay [5] (Preemergence, 125 g ai/ha), 98. The Plant response rating in assay [5] (Preemergence, 250 g ai/ha) was 98; in assay [6] (Postemergence, 31 g ai/ha) it was 5; in [6] (Postemergence, 62 g ai/ha) it was 10; in assay [6] (Postemergence, 125 g ai/ha), 10; in [6] (Postemergence, 250 g ai/ha), 15; in [6] (Preemergence, 31 g ai/ha), 98. Also, the Plant response rating in assay [6] (Preemergence, 62 g ai/ha) was found to be 98; in assay [6] (Preemergence, 125 g ai/ha) it was 98; in [6] (Preemergence, 250 g ai/ha), 98; in [7] (Postemergence, 31 g ai/ha), 35; in [7] (Postemergence, 62 g ai/ha), 40; in assay [7] (Postemergence, 125 g ai/ha), 40. In addition, the Plant response rating in assay [7] (Postemergence, 250 g ai/ha) was found to be 85; in [7] (Preemergence, 31 g ai/ha), 0; in assay [8] (Postemergence, 31 g ai/ha), 5; in assay [8] (Postemergence, 62 g ai/ha) it was 10; in assay [8] (Postemergence, 125 g ai/ha), 30; in [8] (Postemergence, 250 g ai/ha), 45. In addition, the Plant response rating in assay [8] (Preemergence, 62 g ai/ha) came to 20; in assay [8] (Preemergence, 125 g ai/ha), 75; in assay [8] (Preemergence, 250 g ai/ha), 75.
`COc1cc(=O)n(-c2ccc(C(F)(F)F)cc2)nc1Cc1ccnc(C(F)(F)F)c1` [Compound 16, 5-methoxy-2-[4-(trifluoromethyl)phenyl]-6-[[2-(trifluoromethyl)-4-pyridinyl]methyl]-3(2H)-pyridazinone]: the “Plant response rating: Smartweed” value was 40 in assay [9] (Postemergence, 62 g ai/ha); 70 in assay [9] (Postemergence, 125 g ai/ha); 70 in assay [9] (Postemergence, 250 g ai/ha); 98 in assay [9] (Preemergence, 62 g ai/ha); 98 in [9] (Preemergence, 125 g ai/ha); 100 in [9] (Preemergence, 250 g ai/ha).
For the molecule `COc1cc(=O)n(-c2ccc(F)cc2)nc1Cc1ccnc(C(F)(F)F)c1` [Compound 17, 2-(4-fluorophenyl)-5-methoxy-6-[[2-(trifluoromethyl)-4-pyridinyl]methyl]-3 (2H)-pyridazinone], the “Plant response rating: Smartweed” value in [9] (Postemergence, 16 g ai/ha) was determined as 10; in [9] (Postemergence, 31 g ai/ha), 15; in [9] (Postemergence, 62 g ai/ha), 30; in assay [9] (Postemergence, 125 g ai/ha), 40; in assay [9] (Postemergence, 250 g ai/ha), 60; in assay [9] (Preemergence, 16 g ai/ha), 0. Further, the “Plant response rating: Smartweed” value in assay [9] (Preemergence, 31 g ai/ha) is 0; in [9] (Preemergence, 62 g ai/ha) it was 0; in assay [9] (Preemergence, 125 g ai/ha), 20; in [9] (Preemergence, 250 g ai/ha), 75.
